In this experiment the test system is GS-CHO cells. Kind of experiment: Spike-in of single purified metabolites into Medium A, growth of GS-CHO cells monitored 5 or 6 days. It is filed as cell-based, Chinese hamster. The procedure:
GS-CHO cells producing a recombinant antibody were inoculated at low viable cell densities (0.1E6 cells/mL) in various conditions in 5 ml volume, 6-well plate cultures. […] The pH of the Medium A, spiked-in with any one of the nine metabolites or any combination of the nine metabolites, was adjusted to 7 before inoculating the cells (on day 0).
For indolelactate, the stock solution (500 mM) was prepared in DMSO. […] All the conditions were run in duplicates or triplicates. Growth of the cells in above described conditions was monitored for 5 or 6 days.

The mark [1] stands for this setting: metabolite alone at concentrations higher than 0.5 mM or 1 mM.

Consider `O=CO` [Formate], for which the “effect on growth of cells” value (metabolite alone at concentrations 2 mM and beyond) is given as “negative effect on growth”. `N[C@@H](CCS)C(=O)O` [Homocysteine]: the “effect on growth of cells” value under setting [1] is on record as “Modest inhibition of growth”. As to `O=C(O)c1c[nH]c2ccccc12` [Indolecarboxylic acid], where the note is “metabolite alone at concentrations of 1 mM or lower”, the “effect on growth of cells” value is given as “potent negative effect on growth of cells”. `CCC(O)C(=O)O` (stereo not shown) [2-hydroxybutyric acid]: the “effect on growth of cells” value under setting [1] was “Modest inhibition of growth”. For `O=C(O)C(O)Cc1c[nH]c2ccccc12` (stereo not shown) [Indolelactate], under “metabolite alone at concentrations of 3 mM or below, DMSO control included”, the “effect on growth of cells” value is listed as “little or no effect on growth of cells”. Regarding Phenyllactate [Phenyllactate (PLA)], where the note is “metabolite alone at 1 mM concentration”, the “effect on growth of cells” value is recorded as “mild effect on growth of cells”.

Consider `O=C(O)C(O)Cc1ccc(O)cc1` (stereo not shown) [3-(4-hydroxyphenyl)lactate], for which the “effect on growth of cells” value under setting [1] is on record as “Modest inhibition of growth”.

Source of the values: US12584113B2, “Method of cell culture” (Pfizer Inc., priority 2014, dated 2026).
